pIC50: −log10 of the molar value.

The target of one test is USP30 (Homo sapiens (Human), UniProt Q70CQ3). Kind of test: USP30 biochemical IC50 assay.
Sequence of USP30 (Q70CQ3 57-517): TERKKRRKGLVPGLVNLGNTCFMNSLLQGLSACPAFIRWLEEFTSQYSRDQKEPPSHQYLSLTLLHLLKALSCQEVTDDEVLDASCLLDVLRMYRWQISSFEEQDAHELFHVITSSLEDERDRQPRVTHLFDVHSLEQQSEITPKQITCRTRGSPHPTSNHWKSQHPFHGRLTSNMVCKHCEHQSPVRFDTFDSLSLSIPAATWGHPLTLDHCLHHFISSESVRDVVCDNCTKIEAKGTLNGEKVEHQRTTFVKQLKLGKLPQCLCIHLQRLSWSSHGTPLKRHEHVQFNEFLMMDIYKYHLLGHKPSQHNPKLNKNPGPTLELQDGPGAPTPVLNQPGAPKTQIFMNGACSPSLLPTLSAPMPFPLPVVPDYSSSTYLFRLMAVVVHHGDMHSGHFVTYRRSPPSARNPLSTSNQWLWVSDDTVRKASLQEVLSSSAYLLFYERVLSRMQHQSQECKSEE
Conditions: not given
As to the method:
USP30 Biochemical IC50 Assay
Dilution plates were prepared at 21 times the final concentration (2100 μM for a final concentration of 100 μM) in 50% DMSO in a 96-well polypropylene V-bottom plate (Greiner #651201). A typical 8-point dilution series to be 100, 30, 10, 3, 1, 0.3, 0.1, 0.03 μM final. Reactions were performed in duplicate in black 384 well plates (small volume, Greiner 784076) in a final reaction volume of 21 μl. Either 1 μl of 50% DMSO or diluted compound was added to the plate. USP30 was diluted in reaction buffer (40 mM Tris, pH 7.5, 0.005% Tween 20, 0.5 mg/ml BSA, 5 mM beta-mercaptoethanol) to the equivalent of 0.05 μl/well and 10 μl of diluted USP30 was added to the compound. Enzyme and compound were incubated for 30 min at room temp. Reactions were initiated by the addition of 50 nM of TAMRA labelled peptide linked to ubiquitin via an iso-peptide bond as fluorescence polarisation substrate. Reactions were read immediately after addition of substrate and following a 2 hr incubation at room temperature. Readings were performed on a Pherastar Plus (BMG Labtech). λ Excitation 540 nm; λ Emission 590 nm.
In the case of `N#CN1CCC(CNC(=O)c2nn(Cc3ccc(Cl)cc3Cl)c3ccccc23)C1` (centres unmarked) [Example 28, N-((1-Cyanopyrrolidin-3-yl)methyl)-1-(2,4-dichlorobenzyl)-1H-indazole-3-carboxamide], the pIC50 was more than 7.00.

The test is the same for the next values; noted with them: fluorescence polarisation, TAMRA labelled peptide linked to ubiquitin; 30 min pre-incubation, 2 hr read; read-out: IC50 range.
In the case of `CN1C(=O)COc2ccc(C(=O)NCC3CCN(C#N)C3)cc21` (centres unmarked) [Example 23, N-((1-Cyanopyrrolidin-3-yl)methyl)-4-methyl-3-oxo-3,4-dihydro-2H-benzo[b][1,4]oxazine-6-carboxamide], the pIC50 was 6.00 to 7.00.
The same measure, in the same setting: to `N#CN1CC[C@H](CNC(=O)c2cn3ccc(Cl)cc3n2)C1` [Example 65, (R)-7-Chloro-N-((1-cyano-pyrrolidin-3-yl)methyl) imidazo[1,2-a] pyridine-2-carboxamide] belongs 5.00 to 6.00; to `CC(Nc1cc2cc(C#N)ccc2cn1)C1CCN(C#N)C1` (centres unmarked) [Example 51, 3-((1-(1-Cyanopyrrolidin-3-yl)ethyl)amino)isoquinoline-6-carbonitrile], 5.00 to 6.00; to `CN(CC1CCN(C#N)C1)S(=O)(=O)c1ccc(Oc2ccc(C(F)(F)F)cn2)cc1` (centres unmarked) [Example 47, N-((1-Cyanopyrrolidin-3-yl)methyl)-N-methyl-4-((5-(trifluoromethyl)pyridin-2-yl)oxy)benzenesulfonamide], 6.00 to 7.00.
Still for that read-out and setting: the value for `N#CN1CCC(CNC(=O)Nc2cccc(Cc3ccccc3)c2)C1` (centres unmarked) [Example 43, 1-(3-Benzylphenyl)-3-((1-cyanopyrrolidin-3-yl)methyl)urea] was 6.00 to 7.00.
The same measure, in the same setting: to `N#CN1CCC(CNc2ncccc2-c2ccccc2)C1` (centres unmarked) [Example 4, 3-(((3-Phenylpyridin-2-yl)amino)methyl)pyrrolidine-1-carbonitrile] belongs 4.00 to 5.00; to `N#CN1CC[C@H](CNC(=O)c2cn3ccc(C4CC4)cc3n2)C1` [Example 77, (R)—N-((1-Cyanopyrrolidin-3-yl)methyl)-7-cyclopropylimidazo[1,2-a]pyridine-2-carboxamide], 6.00 to 7.00; to `N#CN1CCC(CNc2cc(-c3ccccc3)ccn2)C1` (centres unmarked) [Example 5, 3-(((4-Phenylpyridin-2-yl)amino)methyl)pyrrolidine-1-carbonitrile], 6.00 to 7.00.
On to `N#CN1CCC(CNC(=O)Nc2ccc(C(F)(F)F)cc2)C1` (centres unmarked) [Example 45, 1-((1-Cyanopyrrolidin-3-yl)methyl)-3-(4-(trifluoromethyl)phenyl)urea], for which the pIC50 was 6.00 to 7.00.
Same read-out and setting: to `N#CN1CC[C@H](CNc2ncc3ccc(-c4cn[nH]c4)cc3n2)C1` [Example 12, (R)-3-(((7-(1H-Pyrazol-4-yl)quinazolin-2-yl)amino)methyl)pyrrolidine-1-carbonitrile] belongs 5.00 to 6.00; to `CN(CC1CCN(C#N)C1)C(=O)Cc1ccc(-c2ccccc2)cc1` (centres unmarked) [Example 37, 2-([1,1′-biphenyl]-4-yl)-N-((1-cyanopyrrolidin-3-yl)methyl)-N-methylacetamide], 6.00 to 7.00; to `Cc1nn(C)cc1-c1ccc(NCC2CCN(C#N)C2)c(F)c1` (centres unmarked) [Example 15, 3-(((4-(1,3-Dimethyl-1H-pyrazol-4-yl)-2-fluorophenyl)amino)methyl)pyrrolidine-1-carbonitrile], 5.00 to 6.00.
Still for that read-out and setting: the value for `N#Cc1ccc2cnc(NCC3CCN(C#N)C3)cc2c1` (centres unmarked) [Example 16, 3-(((1-Cyano-pyrrolidin-3-yl)methyl)amino) isoquinoline-6-carbonitrile] was 5.00 to 6.00.

As a reminder, the pIC50 is the IC50 on a negative log10 scale, so that one unit is a factor of ten.

For the origin of these results see US11130748B2, “Compounds” (MISSION THERAPEUTICS LIMITED, priority 2015, dated 2021).
